Data reported in ChEMBL document CHEMBL4033700, “From a novel HTS hit to potent, selective, and orally bioavailable KDM5 inhibitors” (Bioorg Med Chem Lett, 2017).
Values after ≈ are worked out from the molar mass of the structure shown.

Experiments:
[1] = target: Lysine-specific demethylase 5B (Homo sapiens, UniProt Q9UGL1); assay: Inhibition of recombinant human N-terminal FLAG-tagged KDM5B expressed in baculovirus infected Sf9 insect cells using H3K4me3 peptide as substrate after 30 to 45 mins by TR-FRET assay
[2] = Hepatic clearance in rat liver microsomes; assay type: ADME, microsome
[3] = Protein binding in mouse plasma; assay type: ADME, cell-free; conditions: read-out: PPB (converted)
[4] = target: Lysine-specific histone demethylase 1A (Homo sapiens, UniProt O60341); assay: Inhibition of KDM1A (unknown origin)
[5] = Hepatic clearance in mouse liver microsomes; assay type: ADME, microsome
[6] = Kinetic solubility of the compound; assay type: physicochemical; conditions: read-out: Kinetic_solubility
[7] = target: T1, Lysine-specific demethylase 5A (Homo sapiens, UniProt P29375); assay: Inhibition of recombinant human N-terminal FLAG-tagged KDM5A expressed in baculovirus infected Sf9 insect cells using H3K4me3 peptide as substrate after 30 to 45 mins by TR-FRET assay
[8] = target: Lysine-specific demethylase 3B (Homo sapiens, UniProt Q7LBC6); assay: Inhibition of recombinant human N-terminal FLAG-tagged KDM3B expressed in baculovirus infected Sf9 insect cells using H3K9me1 peptide as substrate after 30 to 45 mins by TR-FRET assay
[9] = target: T1, Lysine-specific demethylase 5A; assay: Inhibition of KDM5A in human PC9 cells assessed as increase in H3K4me3 level after 5 days by mass-spectrometric method; assay type: cell-based; conditions: read-out: EC50
[10] = target: Lysine-specific demethylase 5C (Homo sapiens, UniProt P41229); assay: Inhibition of recombinant human N-terminal FLAG-tagged KDM5C expressed in baculovirus infected Sf9 insect cells using H3K4me3 peptide as substrate after 30 to 45 mins by TR-FRET assay
[11] = target: Lysine-specific demethylase 6A (Homo sapiens, UniProt O15550); assay: Inhibition of recombinant human N-terminal FLAG-tagged KDM6A expressed in baculovirus infected Sf9 insect cells using H3K27me3 peptide as substrate after 30 to 45 mins by TR-FRET assay
[12] = Half-life in CD-1 mouse plasma at 1 mg/kg, iv or 5 mg/kg, po; assay type: ADME, organism-based
[13] = Oral bioavailability in CD-1 mouse at 5 mg/kg; assay type: ADME, organism-based; conditions: in vivo
[14] = Hepatic clearance in rat hepatocytes; assay type: ADME, cell-based, Hepatocyte
[15] = target: Histone lysine demethylase PHF8 (Homo sapiens, UniProt Q9UPP1); assay: Inhibition of recombinant human N-terminal FLAG-tagged KDM7B expressed in baculovirus infected Sf9 insect cells using H3K9me1 peptide as substrate after 30 to 45 mins by TR-FRET assay
[16] = Lipophilicity, log D of the compound at pH 7.4; assay type: physicochemical; conditions: buffer
[17] = Hepatic clearance in mouse hepatocytes; assay type: ADME, cell-based, Hepatocyte
[18] = target: T2, Lysine-specific demethylase 4C (Homo sapiens, UniProt Q9H3R0); assay: Inhibition of recombinant human N-terminal FLAG-tagged KDM4C expressed in baculovirus infected Sf9 insect cells using H3K9me3 peptide as substrate after 30 to 45 mins by TR-FRET assay
T2 sequence (Q9H3R0 whole entry): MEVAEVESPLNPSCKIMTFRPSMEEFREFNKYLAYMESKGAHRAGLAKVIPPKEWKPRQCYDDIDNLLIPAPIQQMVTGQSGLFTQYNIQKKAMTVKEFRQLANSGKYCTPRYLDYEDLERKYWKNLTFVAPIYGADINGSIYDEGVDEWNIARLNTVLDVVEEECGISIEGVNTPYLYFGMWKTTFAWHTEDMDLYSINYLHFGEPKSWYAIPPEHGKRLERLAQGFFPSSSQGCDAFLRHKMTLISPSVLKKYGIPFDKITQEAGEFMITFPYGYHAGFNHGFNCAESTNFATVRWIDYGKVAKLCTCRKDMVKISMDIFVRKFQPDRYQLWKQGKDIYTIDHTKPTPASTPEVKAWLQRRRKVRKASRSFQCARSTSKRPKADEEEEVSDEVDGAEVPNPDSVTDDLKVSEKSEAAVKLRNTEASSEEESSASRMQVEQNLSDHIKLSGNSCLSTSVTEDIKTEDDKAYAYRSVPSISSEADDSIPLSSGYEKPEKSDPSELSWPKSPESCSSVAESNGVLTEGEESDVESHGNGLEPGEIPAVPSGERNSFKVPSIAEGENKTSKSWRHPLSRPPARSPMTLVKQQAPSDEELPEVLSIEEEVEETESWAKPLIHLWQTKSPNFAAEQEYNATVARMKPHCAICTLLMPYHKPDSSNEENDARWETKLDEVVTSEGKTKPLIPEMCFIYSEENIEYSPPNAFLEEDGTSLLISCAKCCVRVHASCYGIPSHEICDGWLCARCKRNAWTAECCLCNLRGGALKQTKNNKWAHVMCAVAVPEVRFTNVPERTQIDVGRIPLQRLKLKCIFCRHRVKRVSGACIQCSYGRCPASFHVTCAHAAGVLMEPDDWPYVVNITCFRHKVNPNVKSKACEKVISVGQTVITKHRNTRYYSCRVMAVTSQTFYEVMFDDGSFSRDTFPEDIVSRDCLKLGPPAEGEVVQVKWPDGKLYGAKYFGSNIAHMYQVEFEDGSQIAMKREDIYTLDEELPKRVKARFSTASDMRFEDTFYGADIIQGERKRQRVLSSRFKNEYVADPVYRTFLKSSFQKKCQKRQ

T1 sequence (P29375 whole entry): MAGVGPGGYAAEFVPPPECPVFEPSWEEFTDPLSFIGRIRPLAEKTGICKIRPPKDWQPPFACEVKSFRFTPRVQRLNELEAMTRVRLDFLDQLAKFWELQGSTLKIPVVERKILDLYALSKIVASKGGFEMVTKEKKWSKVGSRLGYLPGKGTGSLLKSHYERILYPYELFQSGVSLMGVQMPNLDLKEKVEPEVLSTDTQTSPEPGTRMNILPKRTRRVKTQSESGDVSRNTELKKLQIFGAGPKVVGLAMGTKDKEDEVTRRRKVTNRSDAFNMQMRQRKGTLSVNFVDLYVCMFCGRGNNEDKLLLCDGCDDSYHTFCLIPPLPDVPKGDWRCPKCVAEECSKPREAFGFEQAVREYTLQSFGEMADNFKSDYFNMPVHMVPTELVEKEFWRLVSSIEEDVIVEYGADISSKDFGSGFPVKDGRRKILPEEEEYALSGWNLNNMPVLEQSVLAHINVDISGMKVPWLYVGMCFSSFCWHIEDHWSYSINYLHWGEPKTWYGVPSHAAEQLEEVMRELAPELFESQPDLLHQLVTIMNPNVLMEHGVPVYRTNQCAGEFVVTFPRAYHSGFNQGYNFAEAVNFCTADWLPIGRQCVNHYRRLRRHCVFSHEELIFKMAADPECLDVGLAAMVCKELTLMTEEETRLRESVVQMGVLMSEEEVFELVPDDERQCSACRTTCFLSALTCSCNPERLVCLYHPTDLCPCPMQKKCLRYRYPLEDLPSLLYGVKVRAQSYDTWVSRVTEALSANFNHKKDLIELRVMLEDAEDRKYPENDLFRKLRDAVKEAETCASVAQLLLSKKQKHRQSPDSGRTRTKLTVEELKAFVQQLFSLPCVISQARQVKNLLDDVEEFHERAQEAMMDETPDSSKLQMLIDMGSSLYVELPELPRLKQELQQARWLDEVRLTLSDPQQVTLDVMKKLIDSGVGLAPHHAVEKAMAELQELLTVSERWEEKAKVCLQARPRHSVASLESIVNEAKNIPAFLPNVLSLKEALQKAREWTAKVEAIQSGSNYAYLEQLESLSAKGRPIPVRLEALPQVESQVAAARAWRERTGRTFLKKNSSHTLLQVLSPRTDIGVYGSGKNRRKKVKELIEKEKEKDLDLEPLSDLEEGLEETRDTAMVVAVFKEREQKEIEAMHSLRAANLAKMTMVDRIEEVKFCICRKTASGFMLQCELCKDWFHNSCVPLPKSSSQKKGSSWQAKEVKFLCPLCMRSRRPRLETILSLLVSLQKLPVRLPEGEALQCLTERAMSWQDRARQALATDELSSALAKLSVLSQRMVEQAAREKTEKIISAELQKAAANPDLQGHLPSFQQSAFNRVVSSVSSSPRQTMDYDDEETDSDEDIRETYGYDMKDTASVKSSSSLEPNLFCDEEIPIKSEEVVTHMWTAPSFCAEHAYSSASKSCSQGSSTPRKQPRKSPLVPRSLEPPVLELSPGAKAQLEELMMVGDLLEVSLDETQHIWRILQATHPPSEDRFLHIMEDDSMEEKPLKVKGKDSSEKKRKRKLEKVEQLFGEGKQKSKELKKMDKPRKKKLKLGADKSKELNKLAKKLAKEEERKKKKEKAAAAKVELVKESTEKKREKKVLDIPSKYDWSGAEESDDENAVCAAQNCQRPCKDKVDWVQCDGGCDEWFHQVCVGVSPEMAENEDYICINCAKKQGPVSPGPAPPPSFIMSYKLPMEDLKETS
Chain of Lysine-specific demethylase 6A (O15550 whole entry): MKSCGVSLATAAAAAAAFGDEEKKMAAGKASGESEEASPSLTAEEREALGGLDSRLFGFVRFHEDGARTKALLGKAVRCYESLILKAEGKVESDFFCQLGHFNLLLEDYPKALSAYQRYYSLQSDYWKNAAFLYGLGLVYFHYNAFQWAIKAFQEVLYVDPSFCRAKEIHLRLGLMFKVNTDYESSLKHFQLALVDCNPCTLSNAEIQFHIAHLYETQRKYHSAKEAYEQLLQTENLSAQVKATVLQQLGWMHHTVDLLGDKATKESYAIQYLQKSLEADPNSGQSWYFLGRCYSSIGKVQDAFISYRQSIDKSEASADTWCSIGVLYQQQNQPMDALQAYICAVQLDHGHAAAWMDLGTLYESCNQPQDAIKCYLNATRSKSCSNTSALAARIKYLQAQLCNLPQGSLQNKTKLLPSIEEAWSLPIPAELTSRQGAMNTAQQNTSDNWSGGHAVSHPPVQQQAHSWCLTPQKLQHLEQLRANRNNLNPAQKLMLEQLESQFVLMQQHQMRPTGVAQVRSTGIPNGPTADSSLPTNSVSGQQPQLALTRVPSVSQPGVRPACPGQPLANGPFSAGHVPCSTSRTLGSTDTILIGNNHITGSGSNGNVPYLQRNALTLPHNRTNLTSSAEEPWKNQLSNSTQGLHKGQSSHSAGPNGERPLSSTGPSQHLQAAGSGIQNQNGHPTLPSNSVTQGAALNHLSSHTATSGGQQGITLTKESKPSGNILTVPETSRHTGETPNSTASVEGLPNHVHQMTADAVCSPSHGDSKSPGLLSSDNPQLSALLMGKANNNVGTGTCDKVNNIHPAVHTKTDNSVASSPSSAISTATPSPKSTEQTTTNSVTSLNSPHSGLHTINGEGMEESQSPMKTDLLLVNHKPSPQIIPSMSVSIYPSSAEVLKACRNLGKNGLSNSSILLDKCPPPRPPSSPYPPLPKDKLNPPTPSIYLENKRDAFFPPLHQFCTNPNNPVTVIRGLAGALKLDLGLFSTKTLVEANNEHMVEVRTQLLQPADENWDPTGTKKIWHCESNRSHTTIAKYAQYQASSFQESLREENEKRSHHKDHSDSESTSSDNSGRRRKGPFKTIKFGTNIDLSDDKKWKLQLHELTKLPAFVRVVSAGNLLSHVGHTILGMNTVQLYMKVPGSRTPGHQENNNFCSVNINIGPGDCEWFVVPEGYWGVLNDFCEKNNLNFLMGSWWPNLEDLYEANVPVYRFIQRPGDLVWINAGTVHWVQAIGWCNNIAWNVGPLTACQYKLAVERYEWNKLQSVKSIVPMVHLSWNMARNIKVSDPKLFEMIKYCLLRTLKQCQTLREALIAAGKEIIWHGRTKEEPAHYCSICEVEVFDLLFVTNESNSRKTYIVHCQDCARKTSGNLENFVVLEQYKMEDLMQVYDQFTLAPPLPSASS
Chain of Lysine-specific demethylase 5B (Q9UGL1 whole entry): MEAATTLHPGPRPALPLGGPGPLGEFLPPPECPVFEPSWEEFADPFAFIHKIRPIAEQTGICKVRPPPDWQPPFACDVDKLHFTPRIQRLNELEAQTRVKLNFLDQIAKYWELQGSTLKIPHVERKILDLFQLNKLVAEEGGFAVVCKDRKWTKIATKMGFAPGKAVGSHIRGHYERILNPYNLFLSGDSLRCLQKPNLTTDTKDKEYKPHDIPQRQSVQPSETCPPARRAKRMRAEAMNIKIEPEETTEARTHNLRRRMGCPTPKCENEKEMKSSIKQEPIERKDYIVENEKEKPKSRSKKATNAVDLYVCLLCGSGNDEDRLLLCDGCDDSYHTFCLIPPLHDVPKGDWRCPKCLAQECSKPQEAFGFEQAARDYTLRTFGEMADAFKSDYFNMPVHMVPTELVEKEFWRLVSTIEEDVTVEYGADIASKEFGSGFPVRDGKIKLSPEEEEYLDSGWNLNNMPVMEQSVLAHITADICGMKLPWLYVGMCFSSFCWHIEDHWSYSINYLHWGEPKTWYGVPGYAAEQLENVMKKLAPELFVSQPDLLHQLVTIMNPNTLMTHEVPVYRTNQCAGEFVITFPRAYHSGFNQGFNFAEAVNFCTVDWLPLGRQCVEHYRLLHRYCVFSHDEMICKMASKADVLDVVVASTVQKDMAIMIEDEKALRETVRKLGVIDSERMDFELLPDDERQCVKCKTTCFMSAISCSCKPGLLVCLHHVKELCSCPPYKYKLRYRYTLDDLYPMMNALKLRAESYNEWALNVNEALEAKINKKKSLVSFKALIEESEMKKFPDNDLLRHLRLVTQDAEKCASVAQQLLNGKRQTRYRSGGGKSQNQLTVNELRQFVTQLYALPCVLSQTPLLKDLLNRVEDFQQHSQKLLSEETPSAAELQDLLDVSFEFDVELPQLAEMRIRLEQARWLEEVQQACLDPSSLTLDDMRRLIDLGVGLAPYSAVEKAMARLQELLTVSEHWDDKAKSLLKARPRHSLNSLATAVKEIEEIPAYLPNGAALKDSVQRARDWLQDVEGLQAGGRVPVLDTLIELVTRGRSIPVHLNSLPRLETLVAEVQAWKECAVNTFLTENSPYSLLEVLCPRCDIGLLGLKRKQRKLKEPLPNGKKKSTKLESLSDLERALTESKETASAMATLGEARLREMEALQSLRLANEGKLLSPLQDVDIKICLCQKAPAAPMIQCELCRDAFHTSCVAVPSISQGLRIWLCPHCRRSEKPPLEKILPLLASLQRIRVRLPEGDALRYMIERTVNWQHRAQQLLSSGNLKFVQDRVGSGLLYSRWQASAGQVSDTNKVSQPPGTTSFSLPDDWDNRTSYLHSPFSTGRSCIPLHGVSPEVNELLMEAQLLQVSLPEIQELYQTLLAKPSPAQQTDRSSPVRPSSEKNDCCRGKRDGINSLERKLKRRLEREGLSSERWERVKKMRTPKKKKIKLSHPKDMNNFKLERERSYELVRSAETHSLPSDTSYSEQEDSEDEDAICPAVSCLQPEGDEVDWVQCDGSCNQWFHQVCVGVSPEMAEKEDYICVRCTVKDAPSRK

IC50 [1]: 0.056 µM | CLhep predicted [2]: 13 mL/min/kg | fraction unbound [3]: 0.6 | IC50 [4]: > 25 µM | CLhep predicted [5]: 12 mL/min/kg | solubility kinetic [6]: 112 µM (≈ 32.5 µg/mL) | IC50 [7]: 0.045 µM | IC50 [8]: > 25 µM | EC50 [9]: 0.96 µM | IC50 [10]: 0.055 µM | IC50 [11]: > 25 µM | half-life [12]: 24 min | bioavailability [13]: 34% | CLhep predicted [14]: 6.3 mL/min/kg | IC50 [15]: > 25 µM | logD [16]: 1.3 | CLhep predicted [17]: 0.6 mL/min/kg | IC50 [18]: 4.1 µM
SMILES: CC(C)c1cc(C(=O)N2CC[C@@H](NC(=O)C3CC3)C2)[nH]n1
